Measurements reported in article PMC2997912 (Molecular pharmaceutics, 2010).

Target: T1, hASBT (Homo sapiens, UniProt Q12908)
T1 sequence (Q12908 1-348): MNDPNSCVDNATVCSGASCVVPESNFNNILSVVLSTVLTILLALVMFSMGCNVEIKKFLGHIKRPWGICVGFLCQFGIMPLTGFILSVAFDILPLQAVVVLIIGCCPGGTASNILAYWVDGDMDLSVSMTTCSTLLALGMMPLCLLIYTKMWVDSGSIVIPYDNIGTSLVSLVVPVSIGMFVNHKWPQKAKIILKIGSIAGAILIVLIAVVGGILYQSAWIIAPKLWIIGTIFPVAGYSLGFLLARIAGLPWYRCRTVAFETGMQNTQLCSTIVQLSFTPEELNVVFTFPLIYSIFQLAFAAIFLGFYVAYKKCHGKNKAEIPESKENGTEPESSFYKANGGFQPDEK
Test: Conjugate uptake into hASBT-MDCK cells in the presence of sodium
Type: cell-based

For C[C@H](CCC(=O)NCCS(=O)(=O)O)[C@H]1CC[C@H]2[C@@H]3[C@H](O)C[C@@H]4C[C@H](O)CC[C@]4(C)[C@H]3C[C@H](O)[C@]12C [taurocholate, Taurocholate], the Vmax was 0.699 pmol/cm^2/s.
